{
  "source": "patent US20200215074A1",
  "about": "“Method of Treatment of Cancer” (CIPLA LIMITED, priority 2017, published 2020)",
  "key": {"[1]": {"test_system": "PAR-4", "test": "PAR-4 inducing activity, general statement of the inventors", "assay_type": "cell-based, human and mouse", "details": "summary statement, no test details"}, "[2]": {"test_system": "PAR-4", "test": "In-vitro PAR-4 induction in mouse embryonic fibroblast cells (Western blot)", "assay_type": "cell-based", "details": "for PAR-4 secretion in the cell supernatant: 18-21 h incubation, Western blot", "description": "(§1) Mouse embryonic fibroblast cells were harvested from exponential phase cultures. After a 24 h recovery period to allow the cells to resume exponential growth the cells were treated with M of Pyronaridine followed by further 18-21 h of incubation. […] The samples were also subjected to SDS/PAGE and Coomassie blue staining to determine albumin levels in serum from the Conditioned Medium (CM) as another loading control.\nas §1, with “[…]” for “Pyronaridine”, “CM” for “Conditioned Medium (CM)”\nas §1, with “fibroblast” for “fibroblast cells”, “with 25 µM” for “with M”, “of Meloquine” for “of Pyronaridine”, “the cell supernatant” for “the Conditioned Medium (CM)”\nas §1, with “[…]” for “Pyronaridine”, “CM” for “Conditioned Medium (CM)”\nas §1, with “fibroblast” for “fibroblast cells”, “with 25 μM” for “with M”, “of Mebendazole” for “of Pyronaridine”, “the cell supernatant” for “the Conditioned Medium (CM)”\nas §1, with “fibroblast” for “fibroblast cells”, “with 25 µM” for “with M”, “of Tafenoquine” for “of Pyronaridine”, “the cell supernatant” for “the Conditioned Medium (CM)”\nThe experiment was conducted as per method set in an Example 1."}, "[3]": {"test_system": "GRP-78", "test": "In-vitro GRP-78 induction in human ovarian and renal cancer cell lines (Western blot)", "assay_type": "cell-based", "details": "25 μM, 18-21 h", "description": "(§2) Human ovarian cancer cell line SKOV-3 and renal cancer cell line 786-0 were harvested from exponential phase cultures. After a 24 h recovery period to allow the cells to resume exponential growth the cells were treated with 25 μM of Mefloquine followed by further 18-21 h of incubation. Induction of GRP-78 expression was checked in the cell lysate by subjecting the samples to Western blot analysis with antibodies specific for GRP-78.\nas §2, with “Mebendazole” for “Mefloquine”\nas §2, with “Tafenoquine” for “Mefloquine”"}, "[4]": {"test_system": "PAR-4", "test": "In-vivo PAR-4 induction in C57/BL6 mice (systemic serum PAR-4)", "design": "species or system mouse", "details": "blood 24 hrs later", "description": "Immunocompetent mice were orally administered with 10 mg/kg and 51.2 mg/kg body weight of Mefloquine or vehicle for 3 consecutive days followed by collection of blood 24 hrs later, serum separation and testing for systemic levels of PAR-4. Immunocompetent mice were orally administered with 1.5 mg/kg body weight of Narasin or vehicle for 3 consecutive days followed by collection of blood 24 hrs later, serum separation and testing for systemic levels of PAR-4."}, "[5]": {"test_system": "PAR-4", "details": "literature (Burikhanov et al. 2014); cited from earlier work"}, "[6]": {"test_system": "PAR-4", "details": "at micromolar levels; cited from earlier work"}, "[7]": {"test_system": "metastatic lung tumors", "details": "injected in mice; literature (Zhao et al. 2011); cited from earlier work"}, "[8]": {"details": "25 μM (25 M [sic] for Mefloquine and Tafenoquine)"}, "[9]": {"details": "SKOV-3 human ovarian cancer cell line"}},
  "data": [
    {"molecule": "COc1cc(C)c2c(Oc3cccc(C(F)(F)F)c3)c(OC)cc(NC(C)CCCN)c2n1", "note": "(stereo not shown) [Tafenoquine]", "values": [
      {"measurement": "PAR-4 inducing activity", "setting": "[1]", "result": "found to possess PAR-4 inducing activity"},
      {"measurement": "Dose dependence of PAR-4 induction", "setting": "[2]", "result": "Dose dependent induction of PAR-4"},
      {"measurement": "PAR-4 secretion in the cell supernatant", "setting": "[2]; [8]", "result": "able to induce robust PAR-4 secretion"},
      {"measurement": "Induction of PAR-4 in cell lysate", "setting": "[2]", "result": "Induction of PAR-4"},
      {"measurement": "GRP-78 expression in cell lysate", "setting": "[3]; 786-0 renal cancer cell line", "result": "induced GRP-78 expression"},
      {"measurement": "GRP-78 expression in cell lysate", "setting": "[3]; [9]", "result": "induced GRP-78 expression"}
    ]},
    {"molecule": "CC(C)N1CCN(c2ccc(OCC3COC(Cn4cncn4)(c4ccc(Cl)cc4Cl)O3)cc2)CC1", "note": "(stereo not shown) [Terconazole]", "values": [
      {"measurement": "PAR-4 inducing activity", "setting": "[1]", "result": "found to possess PAR-4 inducing activity"},
      {"measurement": "Dose dependence of PAR-4 induction", "setting": "[2]", "result": "in a dose dependent manner"},
      {"measurement": "PAR-4 secretion in the cell supernatant", "setting": "[2]; test concentration not given", "result": "able to induce robust PAR-4 secretion"},
      {"measurement": "Induction of PAR-4 in cell lysate", "setting": "[2]", "result": "Induction of PAR-4"}
    ]},
    {"molecule": "OC(c1cc(C(F)(F)F)nc2c(C(F)(F)F)cccc12)C1CCCCN1", "note": "(stereo not shown) [Mefloquine]", "values": [
      {"measurement": "Elevation of PAR-4 in mouse serum relative to vehicle", "setting": "[4]; oral 51.2 mg/kg for 3 consecutive days", "result": "induced robust elevation of PAR-4"},
      {"measurement": "PAR-4 inducing activity", "setting": "[1]", "result": "found to possess PAR-4 inducing activity"},
      {"measurement": "PAR-4 secretion in the cell supernatant", "setting": "[2]; [8]", "result": "able to induce robust PAR-4 secretion"},
      {"measurement": "GRP-78 expression in cell lysate", "setting": "[3]; 786-0 renal cancer cell line", "result": "induced GRP-78 expression"},
      {"measurement": "GRP-78 expression in cell lysate", "setting": "[3]; [9]", "result": "induced GRP-78 expression"}
    ]},
    {"molecule": "CCn1cc(C(=O)O)c(=O)c2ccc(C)nc21", "note": "[Nalidixic Acid]", "values": [
      {"measurement": "PAR-4 inducing activity", "setting": "[1]", "result": "found to possess PAR-4 inducing activity"},
      {"measurement": "PAR-4 secretion in the cell supernatant", "setting": "[2]; test concentration not given", "result": "able to induce robust PAR-4 secretion"}
    ]},
    {"molecule": "CC[C@@H](C(=O)O)[C@@H]1O[C@@H]([C@@H](C)[C@H](O)[C@H](C)C(=O)[C@H](CC)[C@H]2O[C@]3(C=C[C@@H](O)[C@]4(CC[C@@](C)([C@H]5CC[C@](O)(CC)[C@H](C)O5)O4)O3)[C@H](C)C[C@@H]2C)[C@@H](C)C[C@@H]1C", "note": "[Narasin]", "values": [
      {"measurement": "Elevation of PAR-4 in mouse serum relative to vehicle", "setting": "[4]; oral 1.5 mg/kg for 3 consecutive days", "result": "induced robust elevation of PAR-4"},
      {"measurement": "PAR-4 inducing activity", "setting": "[1]", "result": "found to possess PAR-4 inducing activity"},
      {"measurement": "PAR-4 secretion in the cell supernatant", "setting": "[2]; test concentration not given", "result": "able to induce robust PAR-4 secretion"}
    ]},
    {"molecule": "COC(=O)Nc1nc2ccc(C(=O)c3ccccc3)cc2[nH]1", "note": "[Mebendazole]", "values": [
      {"measurement": "PAR-4 inducing activity", "setting": "[1]", "result": "found to possess PAR-4 inducing activity"},
      {"measurement": "PAR-4 secretion in the cell supernatant", "setting": "[2]; [8]", "result": "able to induce robust PAR-4 secretion"},
      {"measurement": "Induction of PAR-4 in cell lysate", "setting": "[2]", "result": "Induction of PAR-4"},
      {"measurement": "GRP-78 expression in cell lysate", "setting": "[3]; 786-0 renal cancer cell line", "result": "induced GRP-78 expression"},
      {"measurement": "GRP-78 expression in cell lysate", "setting": "[3]; [9]", "result": "induced GRP-78 expression"}
    ]},
    {"molecule": "Cc1cccc(C)c1OCC(=O)N[C@@H](Cc1ccccc1)[C@@H](O)C[C@H](Cc1ccccc1)NC(=O)[C@H](C(C)C)N1CCCNC1=O", "note": "[Lopinavir]", "values": [
      {"measurement": "PAR-4 inducing activity", "setting": "[1]", "result": "found to possess PAR-4 inducing activity"},
      {"measurement": "PAR-4 secretion in the cell supernatant", "setting": "[2]; test concentration not given", "result": "able to induce robust PAR-4 secretion"}
    ]},
    {"molecule": "CN(C)c1ccc2cc(-c3ccccc3F)c(N)nc2c1", "note": "[Arylquin-1]", "values": [
      {"measurement": "Secretion of PAR-4 from normal cells in mice", "setting": "[5]", "result": "can increase secretion of PAR-4"}
    ]},
    {"molecule": "O=C(Nc1cc(Cl)cc2c1[nH]c1cnccc12)c1cccnc1", "note": "[PS-1145]", "values": [
      {"measurement": "Secretion of PAR-4 from normal cells in mice", "setting": "[5]", "result": "can increase secretion of PAR-4"}
    ]},
    {"molecule": "COc1ccc(-c2ccc3cc(C(=O)O)ccc3c2)cc1C12CC3CC(CC(C3)C1)C2", "note": "[Adapalene]", "values": [
      {"measurement": "PAR-4 inducing activity", "setting": "[1]", "result": "found to possess PAR-4 inducing activity"}
    ]},
    {"molecule": "CCn1cc(C(=O)O)c(=O)c2cnc(N3CCNCC3)nc21", "note": "[Pipemidic Acid]", "values": [
      {"measurement": "PAR-4 inducing activity", "setting": "[1]", "result": "found to possess PAR-4 inducing activity"},
      {"measurement": "PAR-4 secretion in the cell supernatant", "setting": "[2]; test concentration not given", "result": "able to induce robust PAR-4 secretion"}
    ]},
    {"molecule": "C[C@@H]1CN(c2c(F)c(N)c3c(=O)c(C(=O)O)cn(C4CC4)c3c2F)C[C@H](C)N1", "note": "[Sparfloxacin]", "values": [
      {"measurement": "PAR-4 inducing activity", "setting": "[1]", "result": "found to possess PAR-4 inducing activity"},
      {"measurement": "PAR-4 secretion in the cell supernatant", "setting": "[2]; test concentration not given", "result": "able to induce robust PAR-4 secretion"}
    ]},
    {"molecule": "COc1ccc2nc3cc(Cl)ccc3c(Nc3cc(CN4CCCC4)c(O)c(CN4CCCC4)c3)c2n1", "note": "[Pyronaridine]", "values": [
      {"measurement": "PAR-4 inducing activity", "setting": "[1]", "result": "found to possess PAR-4 inducing activity"},
      {"measurement": "Dose dependence of PAR-4 induction", "setting": "[2]", "result": "in a dose dependent manner"},
      {"measurement": "PAR-4 secretion in the cell supernatant", "setting": "[2]; test concentration not given", "result": "able to induce robust PAR-4 secretion"}
    ]},
    {"molecule": "COc1ccc(C2=N[C@@H](c3ccc(Cl)cc3)[C@@H](c3ccc(Cl)cc3)N2C(=O)N2CCNC(=O)C2)c(OC(C)C)c1", "note": "[Nutlin-3a]", "values": [
      {"measurement": "PAR-4 secretion in MEF cells", "setting": "[6]", "result": "stimulated PAR-4 secretion"},
      {"measurement": "Secretion of PAR-4 from normal cells in mice", "setting": "[5]", "result": "can increase secretion of PAR-4"}
    ]},
    {"molecule": "recombinant PAR-4: recombinant PAR-4 protein injected in mice to elevate extracellular PAR-4 (protein, UniProt Q96IZ0 1-340, looked up) PRKC apoptosis WT1 regulator …: MATGGYRTSSGLGGSTTDFLEEWKAKREKMRAKQNPPGPAPPGGGSSDAAGKPPAGALGTPAAAAANELNNNLPGGAPAAPAVPGPGGVNCAVGSAMLTRAAPGPRRSEDEPPAASASAAPPPQRDEEEPDGVPEKGKSSGPSARKGKGQIEKRKLREKRRSTGVVNIPAAECLDEYEDDEAGQKERKREDAITQQNTIQNEAVNLLDPGSSYLLQEPPRTVSGRYKSTTSVSEEDVSSRYSRTDRSGFPRYNRDANVSGTLVSSSTLEKKIEDLEKEVVRERQENLRLVRLMQDKEEMIGKLKEEIDLLNRDLDDIEDENEQLKQENKTLLKVVGQLTR", "values": [
      {"measurement": "Effect on metastatic lung tumors", "setting": "[7]", "result": "cause inhibition of metastatic lung tumors"}
    ]}
  ]
}
